Source: ChEMBL document CHEMBL5291721, “A preclinical secondary pharmacology resource illuminates target-adverse drug reaction associations of marketed drugs” (Nat Commun, 2023)

Columns and labels:
[1] = target: Growth hormone secretagogue receptor type 1 (Homo sapiens, UniProt Q92847)
[2] = target: T1, Amine oxidase [flavin-containing] A (Homo sapiens, UniProt P21397); assay type: functional
T1 sequence (P21397 whole entry): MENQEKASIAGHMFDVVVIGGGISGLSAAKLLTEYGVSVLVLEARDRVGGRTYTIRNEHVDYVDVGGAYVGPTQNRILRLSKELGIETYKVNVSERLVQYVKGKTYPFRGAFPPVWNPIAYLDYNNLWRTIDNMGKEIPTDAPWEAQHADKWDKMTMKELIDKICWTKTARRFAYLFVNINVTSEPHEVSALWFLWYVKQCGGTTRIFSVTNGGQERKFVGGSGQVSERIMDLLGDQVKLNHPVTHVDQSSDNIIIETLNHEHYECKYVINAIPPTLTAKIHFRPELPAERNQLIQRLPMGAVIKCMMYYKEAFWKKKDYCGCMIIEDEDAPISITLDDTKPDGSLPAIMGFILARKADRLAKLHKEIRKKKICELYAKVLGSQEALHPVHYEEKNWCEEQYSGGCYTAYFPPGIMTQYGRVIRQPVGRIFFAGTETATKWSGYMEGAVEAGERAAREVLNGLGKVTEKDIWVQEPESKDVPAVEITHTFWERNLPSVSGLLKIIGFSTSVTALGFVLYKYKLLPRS

[3] = target: Vasopressin V2 receptor (Homo sapiens, UniProt P30518)
[4] = target: D(1A) dopamine receptor (Homo sapiens, UniProt P21728); assay type: functional, cell-based
[5] = target: T2, Gastrin/cholecystokinin type B receptor (Homo sapiens, UniProt P32239)
T2 sequence (P32239 whole entry): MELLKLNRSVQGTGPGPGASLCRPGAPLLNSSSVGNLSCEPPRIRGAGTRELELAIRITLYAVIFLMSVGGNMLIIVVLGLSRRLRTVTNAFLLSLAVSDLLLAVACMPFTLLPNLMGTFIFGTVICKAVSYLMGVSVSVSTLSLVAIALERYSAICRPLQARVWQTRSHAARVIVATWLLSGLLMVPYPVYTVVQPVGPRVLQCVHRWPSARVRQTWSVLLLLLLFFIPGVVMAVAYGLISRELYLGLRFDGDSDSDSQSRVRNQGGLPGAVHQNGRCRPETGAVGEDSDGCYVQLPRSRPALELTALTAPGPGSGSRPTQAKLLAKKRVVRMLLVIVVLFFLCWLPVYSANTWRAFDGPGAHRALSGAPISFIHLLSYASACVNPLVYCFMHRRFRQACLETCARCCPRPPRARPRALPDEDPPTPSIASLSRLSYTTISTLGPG

[6] = target: T3, Alpha-2A adrenergic receptor (Homo sapiens, UniProt P08913); assay type: functional, cell-based
T3 sequence (P08913 whole entry): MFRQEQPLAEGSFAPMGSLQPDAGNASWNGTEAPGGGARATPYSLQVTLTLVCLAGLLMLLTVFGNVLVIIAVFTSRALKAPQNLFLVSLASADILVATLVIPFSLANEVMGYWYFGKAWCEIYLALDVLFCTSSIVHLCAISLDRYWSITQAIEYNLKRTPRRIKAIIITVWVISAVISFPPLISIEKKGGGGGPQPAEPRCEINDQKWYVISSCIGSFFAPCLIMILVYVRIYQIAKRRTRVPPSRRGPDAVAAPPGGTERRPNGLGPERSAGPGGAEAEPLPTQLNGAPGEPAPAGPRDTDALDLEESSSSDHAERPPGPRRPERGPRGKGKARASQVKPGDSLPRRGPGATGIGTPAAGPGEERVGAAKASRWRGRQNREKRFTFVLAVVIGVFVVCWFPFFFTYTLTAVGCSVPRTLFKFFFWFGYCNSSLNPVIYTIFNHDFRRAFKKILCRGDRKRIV

[7] = target: D(3) dopamine receptor (Homo sapiens, UniProt P35462)
[8] = target: T4, Alpha-1A adrenergic receptor (Homo sapiens, UniProt P35348); assay type: functional, cell-based
T4 sequence (P35348 whole entry): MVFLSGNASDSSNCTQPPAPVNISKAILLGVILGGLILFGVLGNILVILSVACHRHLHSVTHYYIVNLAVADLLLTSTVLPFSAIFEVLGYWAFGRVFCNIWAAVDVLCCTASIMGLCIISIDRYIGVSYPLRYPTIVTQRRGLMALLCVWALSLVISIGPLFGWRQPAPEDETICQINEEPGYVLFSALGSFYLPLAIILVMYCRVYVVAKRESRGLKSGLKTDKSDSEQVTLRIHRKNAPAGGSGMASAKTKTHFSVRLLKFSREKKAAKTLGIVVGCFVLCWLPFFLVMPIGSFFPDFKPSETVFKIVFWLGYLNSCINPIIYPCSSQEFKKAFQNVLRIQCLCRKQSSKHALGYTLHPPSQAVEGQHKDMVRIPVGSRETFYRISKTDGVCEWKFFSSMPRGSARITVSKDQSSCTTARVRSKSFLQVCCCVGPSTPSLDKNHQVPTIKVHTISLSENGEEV

[9] = target: T5, Gamma-aminobutyric acid receptor subunit alpha-1 (Rattus norvegicus, UniProt P62813); assay type: functional
[10] = target: T5, Gamma-aminobutyric acid receptor subunit alpha-1
Further: assay procedure not described here.

T5 sequence (P62813 whole entry): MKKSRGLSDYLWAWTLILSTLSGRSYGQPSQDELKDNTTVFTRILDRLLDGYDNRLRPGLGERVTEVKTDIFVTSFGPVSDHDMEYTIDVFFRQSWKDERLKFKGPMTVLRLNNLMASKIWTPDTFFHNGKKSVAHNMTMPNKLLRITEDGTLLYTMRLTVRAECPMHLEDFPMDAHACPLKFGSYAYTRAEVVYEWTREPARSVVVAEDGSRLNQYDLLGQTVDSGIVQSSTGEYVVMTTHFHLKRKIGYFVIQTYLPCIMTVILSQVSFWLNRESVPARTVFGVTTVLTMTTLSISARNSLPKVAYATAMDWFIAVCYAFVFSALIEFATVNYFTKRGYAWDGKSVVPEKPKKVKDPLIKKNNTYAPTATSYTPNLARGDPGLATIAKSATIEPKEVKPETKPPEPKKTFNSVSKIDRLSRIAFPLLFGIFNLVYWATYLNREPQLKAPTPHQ
Chain of D(3) dopamine receptor (P35462 whole entry): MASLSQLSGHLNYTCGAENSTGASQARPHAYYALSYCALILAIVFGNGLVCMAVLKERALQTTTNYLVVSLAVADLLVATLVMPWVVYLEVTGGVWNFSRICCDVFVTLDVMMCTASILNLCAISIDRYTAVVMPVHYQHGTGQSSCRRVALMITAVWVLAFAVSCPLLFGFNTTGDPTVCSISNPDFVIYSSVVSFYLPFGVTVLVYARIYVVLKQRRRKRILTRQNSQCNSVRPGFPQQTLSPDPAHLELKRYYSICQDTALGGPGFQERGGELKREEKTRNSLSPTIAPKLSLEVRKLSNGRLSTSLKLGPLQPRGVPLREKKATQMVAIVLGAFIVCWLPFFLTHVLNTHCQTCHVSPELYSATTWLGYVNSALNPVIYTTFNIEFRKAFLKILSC
Chain of Vasopressin V2 receptor (P30518 whole entry): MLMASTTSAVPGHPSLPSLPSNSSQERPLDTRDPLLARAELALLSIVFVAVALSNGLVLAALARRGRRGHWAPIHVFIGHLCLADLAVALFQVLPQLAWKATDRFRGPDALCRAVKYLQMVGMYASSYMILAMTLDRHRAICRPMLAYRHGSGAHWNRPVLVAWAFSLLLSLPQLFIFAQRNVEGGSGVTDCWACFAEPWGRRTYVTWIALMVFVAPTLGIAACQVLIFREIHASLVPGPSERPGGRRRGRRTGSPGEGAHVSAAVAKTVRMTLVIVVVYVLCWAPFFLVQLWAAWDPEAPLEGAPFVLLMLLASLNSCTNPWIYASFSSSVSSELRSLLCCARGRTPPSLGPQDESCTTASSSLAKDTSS
Chain of Growth hormone secretagogue receptor type 1 (Q92847 whole entry): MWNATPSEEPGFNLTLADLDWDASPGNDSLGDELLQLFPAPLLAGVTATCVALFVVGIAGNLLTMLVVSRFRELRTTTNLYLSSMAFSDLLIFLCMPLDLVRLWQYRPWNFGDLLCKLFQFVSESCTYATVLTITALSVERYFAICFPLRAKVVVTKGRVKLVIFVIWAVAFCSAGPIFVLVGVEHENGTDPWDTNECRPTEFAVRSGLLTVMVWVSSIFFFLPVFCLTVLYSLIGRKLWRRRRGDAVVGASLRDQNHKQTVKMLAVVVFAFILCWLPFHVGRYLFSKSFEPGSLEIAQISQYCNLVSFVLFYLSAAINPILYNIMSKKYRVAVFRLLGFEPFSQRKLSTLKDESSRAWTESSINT
Chain of D(1A) dopamine receptor (P21728 whole entry): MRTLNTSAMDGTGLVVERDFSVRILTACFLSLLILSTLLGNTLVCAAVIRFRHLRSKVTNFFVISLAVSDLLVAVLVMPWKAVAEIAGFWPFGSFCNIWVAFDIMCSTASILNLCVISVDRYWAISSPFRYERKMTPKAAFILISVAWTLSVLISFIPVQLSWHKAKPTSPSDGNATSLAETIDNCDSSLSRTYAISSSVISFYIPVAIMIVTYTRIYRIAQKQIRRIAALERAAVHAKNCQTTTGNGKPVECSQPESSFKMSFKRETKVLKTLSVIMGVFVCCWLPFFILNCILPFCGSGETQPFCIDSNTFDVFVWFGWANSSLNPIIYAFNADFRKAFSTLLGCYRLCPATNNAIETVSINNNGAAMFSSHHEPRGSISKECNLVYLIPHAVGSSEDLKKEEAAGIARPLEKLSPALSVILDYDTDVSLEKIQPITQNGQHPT

With `Cc1nc(Nc2ncc(C(=O)Nc3c(C)cccc3Cl)s2)cc(N2CCN(CCO)CC2)n1` [DASATINIB] the AC50 [1] was greater than 30 µM, the AC50 [2] was greater than 30 µM and the AC50 [3] was greater than 30 µM. For the same compound, the AC50 [4] was greater than 30 µM, the AC50 [5] was greater than 30 µM and the AC50 [6] was greater than 30 µM. The AC50 [7] was greater than 30 µM and the AC50 [8] was greater than 30 µM.
`CC(C)Cc1ccc([C@H](C)C(=O)O)cc1` [DEXIBUPROFEN] gave an AC50 [9] greater than 30 µM, an AC50 [1] greater than 30 µM and an AC50 [2] greater than 30 µM. It also gave an AC50 [4] greater than 30 µM, an AC50 [6] greater than 30 µM and an AC50 [7] greater than 30 µM. It also gave an AC50 [8] greater than 30 µM.
`O=C(O)Cc1ccccc1Nc1c(Cl)cccc1Cl` [DICLOFENAC] was tested, and the AC50 [9] was greater than 10 µM, the AC50 [1] was greater than 30 µM and the AC50 [2] was greater than 10 µM. It also gave an AC50 [3] greater than 30 µM, an AC50 [4] greater than 10 µM and an AC50 [5] greater than 30 µM. It also gave an AC50 [10] greater than 10 µM, an AC50 [6] greater than 10 µM and an AC50 [7] greater than 10 µM. The AC50 [8] was greater than 30 µM.
`CNC[C@H](O)c1ccc(O)c(O)c1` [EPINEPHRINE] gave an AC50 [9] greater than 30 µM, an AC50 [1] greater than 30 µM and an AC50 [2] greater than 30 µM. The AC50 [7] was 8.4 µM.
`Cc1onc(-c2c(F)cccc2Cl)c1C(=O)N[C@@H]1C(=O)N2[C@@H]1SC(C)(C)[C@@H]2C(=O)O` [FLOXACILLIN] showed an AC50 [9] greater than 30 µM, an AC50 [1] greater than 30 µM and an AC50 [2] greater than 30 µM. It also gave an AC50 [4] greater than 30 µM, an AC50 [6] greater than 30 µM and an AC50 [7] greater than 30 µM. The AC50 [8] was greater than 30 µM.
`CCCCCCCN(CC)CCCC(O)c1ccc(NS(C)(=O)=O)cc1` (stereo not given) [IBUTILIDE] was tested, and the AC50 [9] was greater than 30 µM, the AC50 [1] was greater than 30 µM and the AC50 [2] was greater than 30 µM. The AC50 [3] was greater than 30 µM, the AC50 [4] was greater than 30 µM and the AC50 [5] was greater than 30 µM. For the same compound, the AC50 [10] was greater than 30 µM, the AC50 [6] was greater than 30 µM and the AC50 [7] was 4.3 µM. It also gave an AC50 [8] greater than 30 µM.
In the case of `CC[C@@H](CO)NC(=O)[C@@H]1C=C2c3cccc4c3c(cn4C)C[C@H]2N(C)C1` [METHYSERGIDE], the AC50 [9] is reported as greater than 10 µM, the AC50 [1] is reported as greater than 30 µM and the AC50 [2] is reported as greater than 10 µM. For the same compound, the AC50 [3] was greater than 30 µM, the AC50 [5] was greater than 30 µM and the AC50 [10] was greater than 10 µM. It also gave an AC50 [6] greater than 10 µM, an AC50 [7] of 0.42 µM and an AC50 [8] of 0.88 µM.
`CNC(=C[N+](=O)[O-])NCCSCc1csc(CN(C)C)n1` [NIZATIDINE] gave an AC50 [9] greater than 10 µM, an AC50 [1] greater than 10 µM and an AC50 [2] greater than 10 µM. It also gave an AC50 [3] greater than 10 µM, an AC50 [4] greater than 10 µM and an AC50 [10] greater than 10 µM. For the same compound, the AC50 [6] was greater than 10 µM and the AC50 [7] was greater than 30 µM.
Work on `CCCc1cc(=O)[nH]c(=S)[nH]1` [PROPYLTHIOURACIL] yielded an AC50 [9] greater than 10 µM, an AC50 [1] greater than 10 µM and an AC50 [2] greater than 10 µM. For the same compound, the AC50 [3] was greater than 10 µM, the AC50 [4] was greater than 10 µM and the AC50 [10] was greater than 10 µM. It also gave an AC50 [6] greater than 10 µM and an AC50 [7] greater than 30 µM.
`S=P(N1CC1)(N1CC1)N1CC1` [THIOTEPA] gave an AC50 [9] greater than 30 µM, an AC50 [1] greater than 30 µM and an AC50 [2] greater than 30 µM. The AC50 [4] was greater than 30 µM, the AC50 [6] was greater than 30 µM and the AC50 [7] was 9.9 µM. The AC50 [8] was greater than 30 µM.
`COc1cc(C(=O)NS(=O)(=O)c2ccccc2C)ccc1Cc1cn(C)c2ccc(NC(=O)OC3CCCC3)cc12` [ZAFIRLUKAST] showed an AC50 [9] greater than 10 µM, an AC50 [1] greater than 10 µM and an AC50 [2] greater than 10 µM. It also gave an AC50 [3] greater than 10 µM, an AC50 [4] greater than 10 µM and an AC50 [10] greater than 10 µM. It also gave an AC50 [8] greater than 30 µM.
